This assay has as its system β-catenin-TCF-mediated reporter transcription activity in Colo 205 cells. Nature of the assay: Colo 205 reporter assay (TCF/LEF luciferase). Format: cell-based. The settings on record: Homo sapiens, COLO 205, 5 h, Colo 205 TCF/LEF luciferase reporter, five hours after addition of compound; read-out: TCF reporter Colo205 IC50. The method in brief:
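Luciferase signal from a TCF/LEF-driven reporter, stably integrated in Colo 205 colon cancer cells, was measured 5 h after compound addition.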

Broadly, the IC50 is the concentration that inhibits the measured activity by half. For `CO[C@H](C)[C@H]1C(=O)Nc2c(C)nc(NC3CN(C(=O)c4cc(F)c(F)c(F)c4)C3)nc2N1C` [Compound 568, (S)-7-((R)-1-methoxyethyl)-4,8-dimethyl-2-((1-(3,4,5-trifluorobenzoyl)azetidin-3-yl)amino)-7,8-dihydropteridin-6(5H)-one], the IC50 was < 300 nM.
In the case of `Cc1nc(N[C@H]2C[C@@H](Nc3nc(C(F)(F)F)nn3C)C2)nc2c1NC(=O)[C@H](C(C)C)N2C` [Compound 569, (S)-7-isopropyl-4,8-dimethyl-2-((cis-3-((1-methyl-3-(trifluoromethyl)-1H-1,2,4-triazol-5-yl)amino)cyclobutyl)amino)-7,8-dihydropteridin-6(5H)-one] it was 1000 to 5000 nM; in that of `Cc1nc(N[C@H]2C[C@@H](COc3ccc(Cl)nc3)C2)nc2c1NC(=O)[C@H](C(C)C)N2C` [Compound 570, (S)-2-((cis-3-(((6-chloropyridin-3-yl)oxy)methyl)cyclobutyl)amino)-7-isopropyl-4,8-dimethyl-7,8-dihydropteridin-6(5H)-one], < 300 nM; in that of `Cc1ccc(OC[C@H]2C[C@@H](Nc3nc(C)c4c(n3)N(C)[C@@H](C(C)C)C(=O)N4)C2)cn1` [Compound 571, (S)-7-isopropyl-4,8-dimethyl-2-((cis-3-(((6-methylpyridin-3-yl)oxy)methyl)cyclobutyl)amino)-7,8-dihydropteridin-6(5H)-one], 300 to 1000 nM.
For `Cc1nc(N[C@H]2C[C@@H](COc3ccc(C#N)nc3)C2)nc2c1NC(=O)[C@H](C(C)C)N2C` [Compound 572, 5-((cis-3-(((S)-7-isopropyl-4,8-dimethyl-6-oxo-5,6,7,8-tetrahydropteridin-2-yl)amino)cyclobutyl)methoxy)picolinonitrile] the value was < 300 nM; for `COc1ccc(OC[C@H]2C[C@@H](Nc3nc(C)c4c(n3)N(C)[C@@H](C(C)C)C(=O)N4)C2)cn1` [Compound 573, (S)-7-isopropyl-2-((cis-3-(((6-methoxypyridin-3-yl)oxy)methyl)cyclobutyl)amino)-4,8-dimethyl-7,8-dihydropteridin-6(5H)-one], < 300 nM.
For `Cc1nc(N[C@H]2C[C@@H](COc3ccc(F)nc3)C2)nc2c1NC(=O)[C@H](C(C)C)N2C` [Compound 574, (S)-2-((cis-3-(((6-fluoropyridin-3-yl)oxy)methyl)cyclobutyl)amino)-7-isopropyl-4,8-dimethyl-7,8-dihydropteridin-6(5H)-one] the value was < 300 nM; for `Cc1nc(N[C@H]2C[C@@H](COc3cnn(C)c3C(F)(F)F)C2)nc2c1NC(=O)[C@H](C(C)C)N2C` [Compound 575, (S)-7-isopropyl-4,8-dimethyl-2-((cis-3-(((1-methyl-5-(trifluoromethyl)-1H-pyrazol-4-yl)oxy)methyl)cyclobutyl)amino)-7,8-dihydropteridin-6(5H)-one], < 300 nM.
Turning to `Cc1nc(N[C@H]2C[C@@H](Nc3ccc(OC(F)(F)F)cn3)C2)nc2c1NC(=O)[C@H](C(C)C)N2C` [Compound 576, (S)-7-isopropyl-4,8-dimethyl-2-((cis-3-((5-(trifluoromethoxy)pyridin-2-yl)amino)cyclobutyl)amino)-7,8-dihydropteridin-6(5H)-one], the half-maximal inhibitory concentration (IC50) was < 300 nM.
For the compound `Cc1nc(N[C@H]2C[C@@H](Nc3ccc(OC(F)(F)F)cn3)C2)nc2c1NC(=O)[C@H](C)N2C` [Compound 577, (S)-4,7,8-trimethyl-2-((cis-3-((5-(trifluoromethoxy)pyridin-2-yl)amino)cyclobutyl)amino)-7,8-dihydropteridin-6(5H)-one], the IC50 was in the range of 300 to 1000 nM.
In the case of `Cc1nc(N[C@H]2C[C@H](Nc3cnc(C(F)(F)F)cn3)C2)nc2c1NC(=O)[C@H](C)N2C` [Compound 579, (S)-4,7,8-trimethyl-2-((trans-3-((5-(trifluoromethyl)pyrazin-2-yl)amino)cyclobutyl)amino)-7,8-dihydropteridin-6(5H)-one] it was 1000 to 5000 nM; in that of `Cc1nc(N[C@H]2C[C@@H](COc3ccc4c(c3)OCO4)C2)nc2c1NC(=O)[C@H](C(C)C)N2C` [Compound 580, (S)-2-((cis-3-((benzo[d][1,3]dioxol-5-yloxy)methyl)cyclobutyl)amino)-7-isopropyl-4,8-dimethyl-7,8-dihydropteridin-6(5H)-one], 300 to 1000 nM.
For `Cc1nc(N[C@H]2C[C@@H](Cn3nc(C4CC4)cc3C(F)(F)F)C2)nc2c1NC(=O)[C@H](C(C)C)N2C` [Compound 581, (S)-2-((cis-3-((3-cyclopropyl-5-(trifluoromethyl)-1H-pyrazol-1-yl)methyl)cyclobutyl)amino)-7-isopropyl-4,8-dimethyl-7,8-dihydropteridin-6(5H)-one] the value was < 300 nM; for `Cc1cc(C(F)(F)F)n(C[C@H]2C[C@@H](Nc3nc(C)c4c(n3)N(C)[C@@H](C(C)C)C(=O)N4)C2)n1` [Compound 582, (S)-7-isopropyl-4,8-dimethyl-2-((cis-3-((3-methyl-5-(trifluoromethyl)-1H-pyrazol-1-yl)methyl)cyclobutyl)amino)-7,8-dihydropteridin-6(5H)-one], 300 to 1000 nM.
For `Cc1nc(N[C@H]2C[C@@H](Cn3ccc(Cl)n3)C2)nc2c1NC(=O)[C@H](C(C)C)N2C` [Compound 583, (S)-2-((cis-3-((3-chloro-1H-pyrazol-1-yl)methyl)cyclobutyl)amino)-7-isopropyl-4,8-dimethyl-7,8-dihydropteridin-6(5H)-one] the value was < 300 nM; for `Cc1nc(N[C@H]2C[C@@H](Cn3nc(N)cc3C(F)(F)F)C2)nc2c1NC(=O)[C@H](C(C)C)N2C` [Compound 584, (S)-2-((cis-3-((3-amino-5-(trifluoromethyl)-1H-pyrazol-1-yl)methyl)cyclobutyl)amino)-7-isopropyl-4,8-dimethyl-7,8-dihydropteridin-6(5H)-one], ≥ 5000 nM; for `Cc1nc(N[C@H]2C[C@@H](Cn3nc(C(F)(F)F)cc3N)C2)nc2c1NC(=O)[C@H](C(C)C)N2C` [Compound 585, (S)-2-((cis-3-((5-amino-3-(trifluoromethyl)-1H-pyrazol-1-yl)methyl)cyclobutyl)amino)-7-isopropyl-4,8-dimethyl-7,8-dihydropteridin-6(5H)-one], 300 to 1000 nM.
As for `Cc1nc(N[C@H]2C[C@@H](Nc3ccc(C(F)(F)F)nc3)C2)nc2c1NC(=O)[C@H](C(C)C)N2C` [Compound 586, (S)-7-isopropyl-4,8-dimethyl-2-((cis-3-((6-(trifluoromethyl)pyridin-3-yl)amino)cyclobutyl)amino)-7,8-dihydropteridin-6(5H)-one], the IC50 is < 300 nM.
Regarding `Cc1nc(N[C@H]2C[C@H](Nc3ccc(C(F)(F)F)nc3)C2)nc2c1NC(=O)[C@H](C(C)C)N2C` [Compound 587, (S)-7-isopropyl-4,8-dimethyl-2-((trans-3-((6-(trifluoromethyl)pyridin-3-yl)amino)cyclobutyl)amino)-7,8-dihydropteridin-6(5H)-one], the IC50 fell in the range of 300 to 1000 nM.
For `CO[C@H](C)[C@H]1C(=O)Nc2c(C)nc(N[C@H]3C[C@@H](Cn4nccc4C(F)(F)F)C3)nc2N1C` [Compound 588, (S)-7-((R)-1-methoxyethyl)-4,8-dimethyl-2-((cis-3-((5-(trifluoromethyl)-1H-pyrazol-1-yl)methyl)cyclobutyl)amino)-7,8-dihydropteridin-6(5H)-one] the value was < 300 nM; for `Cc1nc(NCc2cnn(Cc3ccc(C(F)(F)F)nc3)c2)nc2c1NC(=O)[C@H](COC(C)(C)C)N2C` [Compound 590, (S)-7-(tert-butoxymethyl)-4,8-dimethyl-2-(((1-((6-(trifluoromethyl)pyridin-3-yl)methyl)-1H-pyrazol-4-yl)methyl)amino)-7,8-dihydropteridin-6(5H)-one], 300 to 1000 nM.
In the case of `Cc1nc(NC2CN(Cc3cc(F)c(F)c(F)c3)C2)nc2c1NC(=O)[C@H](C(C)C)N2C` [Compound 591, (S)-7-isopropyl-4,8-dimethyl-2-((1-(3,4,5-trifluorobenzyl)azetidin-3-yl)amino)-7,8-dihydropteridin-6(5H)-one] it was < 300 nM.
In the case of `Cc1nc(NC2CN(S(=O)(=O)c3ccc(F)cc3)C2)nc2c1NC(=O)[C@H](C(C)C)N2C` [Compound 592, (7S)-2-((1-((4-fluorophenyl)sulfonyl)azetidin-3-yl)amino)-7-isopropyl-4,8-dimethyl-7,8-dihydropteridin-6(5H)-one] it was ≥ 5000 nM; in that of `CC[C@H]1C(=O)Nc2c(C)nc(N[C@H]3C[C@@H](Cn4nccc4C(F)(F)F)C3)nc2N1C` [Compound 593, (S)-7-ethyl-4,8-dimethyl-2-((cis-3-((5-(trifluoromethyl)-1H-pyrazol-1-yl)methyl)cyclobutyl)amino)-7,8-dihydropteridin-6(5H)-one], < 300 nM.
On to `Cc1nc(NC2CN(C(=O)Cc3ccc(C(F)(F)F)nc3)C2)nc2c1NC(=O)[C@H](C(C)C)N2C` [Compound 594, (S)-7-isopropyl-4,8-dimethyl-2-((1-(2-(6-(trifluoromethyl)pyridin-3-yl)acetyl)azetidin-3-yl)amino)-7,8-dihydropteridin-6(5H)-one], for which the IC50 lay within 1000 to 5000 nM.
For `Cc1nc(NC2CN(C(=O)Cn3ccc(C(F)(F)F)n3)C2)nc2c1NC(=O)[C@H](C(C)C)N2C` [Compound 595, (S)-7-isopropyl-4,8-dimethyl-2-((1-(2-(3-(trifluoromethyl)-1H-pyrazol-1-yl)acetyl)azetidin-3-yl)amino)-7,8-dihydropteridin-6(5H)-one] the value was 300 to 1000 nM; for `Cc1nc(NC2CN(C(=O)c3cc(C(F)(F)F)nn3C)C2)nc2c1NC(=O)[C@H](C(C)C)N2C` [Compound 596, (S)-7-isopropyl-4,8-dimethyl-2-((1-(1-methyl-3-(trifluoromethyl)-1H-pyrazole-5-carbonyl)azetidin-3-yl)amino)-7,8-dihydropteridin-6(5H)-one], < 300 nM.
In the case of `Cc1nc(NC2CN(C(=O)c3cc(C(F)(F)F)n(C)n3)C2)nc2c1NC(=O)[C@H](C(C)C)N2C` [Compound 597, (S)-7-isopropyl-4,8-dimethyl-2-((1-(1-methyl-5-(trifluoromethyl)-1H-pyrazole-3-carbonyl)azetidin-3-yl)amino)-7,8-dihydropteridin-6(5H)-one] it was 1000 to 5000 nM.

Source of the values: patent US20230312587A1, “PTERIDINONE COMPOUNDS AND USES THEREOF” (Vertex Pharmaceutical Incorporated, priority 2018, published 2023).
